Reference: ChEMBL document CHEMBL3882729, “Receptor-type kinase modulators and methods of use” (2009)

Legend:
[1] = target: Receptor tyrosine-protein kinase erbB-2 (Homo sapiens, UniProt P04626); experiment: Inhibition of recombinant human N-terminal GST His6-tagged thrombin cleavage site-fused ErbB2 kinase domain (Q679 to V1255 residues) expressed in baculovirus infected insect Sf9 cells using biotinylated poly-EY as substrate after 60 mins by alphascreen assay
[2] = target: Vascular endothelial growth factor receptor 2 (Homo sapiens, UniProt P35968); experiment: Inhibition of recombinant human N-terminal GST-fused KDR (D807 to V1356 residues) expressed in baculovirus infected […] insect Sf9 cells using poly-EY as substrate after 240 mins by luciferase coupled chemiluminescence assay
Vascular endothelial growth factor receptor 2, sequence (P35968 whole entry, the tested form may be a part): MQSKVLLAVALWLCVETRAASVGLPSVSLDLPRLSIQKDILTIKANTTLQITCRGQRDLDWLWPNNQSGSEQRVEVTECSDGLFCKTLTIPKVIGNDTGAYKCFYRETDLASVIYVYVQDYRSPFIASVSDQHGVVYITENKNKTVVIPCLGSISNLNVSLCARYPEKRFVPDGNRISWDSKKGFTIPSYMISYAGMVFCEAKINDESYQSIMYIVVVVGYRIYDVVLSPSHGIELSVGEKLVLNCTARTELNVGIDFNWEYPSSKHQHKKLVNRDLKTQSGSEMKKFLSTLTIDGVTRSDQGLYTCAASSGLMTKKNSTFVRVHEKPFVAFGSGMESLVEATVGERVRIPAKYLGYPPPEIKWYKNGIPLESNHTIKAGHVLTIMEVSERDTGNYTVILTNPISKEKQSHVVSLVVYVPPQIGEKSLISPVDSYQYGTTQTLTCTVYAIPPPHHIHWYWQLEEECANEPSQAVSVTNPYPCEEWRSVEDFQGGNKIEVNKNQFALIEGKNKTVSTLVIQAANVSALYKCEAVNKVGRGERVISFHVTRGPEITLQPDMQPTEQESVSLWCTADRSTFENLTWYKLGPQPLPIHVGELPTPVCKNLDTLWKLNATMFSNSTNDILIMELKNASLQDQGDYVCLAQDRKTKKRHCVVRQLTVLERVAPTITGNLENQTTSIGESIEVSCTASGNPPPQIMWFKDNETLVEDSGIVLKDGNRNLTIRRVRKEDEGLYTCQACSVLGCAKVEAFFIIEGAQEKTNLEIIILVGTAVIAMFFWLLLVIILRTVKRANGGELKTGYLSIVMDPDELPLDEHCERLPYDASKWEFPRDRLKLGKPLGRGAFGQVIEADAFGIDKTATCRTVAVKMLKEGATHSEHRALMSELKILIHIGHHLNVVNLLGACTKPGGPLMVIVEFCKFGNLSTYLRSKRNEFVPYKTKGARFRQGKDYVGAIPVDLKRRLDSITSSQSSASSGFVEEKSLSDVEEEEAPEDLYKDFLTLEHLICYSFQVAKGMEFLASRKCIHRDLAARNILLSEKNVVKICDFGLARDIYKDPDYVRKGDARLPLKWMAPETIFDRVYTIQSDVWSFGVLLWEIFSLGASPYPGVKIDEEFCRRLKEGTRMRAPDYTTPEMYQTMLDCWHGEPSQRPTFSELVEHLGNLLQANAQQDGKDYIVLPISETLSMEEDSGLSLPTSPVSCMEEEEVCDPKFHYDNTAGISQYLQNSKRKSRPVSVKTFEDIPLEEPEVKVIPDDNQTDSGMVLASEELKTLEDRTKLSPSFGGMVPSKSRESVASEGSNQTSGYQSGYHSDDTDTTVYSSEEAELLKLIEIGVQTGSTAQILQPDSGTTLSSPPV

Ephrin type-B receptor 4 = target: T1, Ephrin type-B receptor 4 (Homo sapiens, UniProt P54760); experiment: Inhibition of recombinant human N-terminal His6-tagged EphB4 kinase domain (E605 to E890 residues) expressed in baculovirus using poly-AEKY as substrate after 150 mins in presence of gamma33P-ATP by liquid scintillation spectrometry
T1 sequence (P54760 whole entry): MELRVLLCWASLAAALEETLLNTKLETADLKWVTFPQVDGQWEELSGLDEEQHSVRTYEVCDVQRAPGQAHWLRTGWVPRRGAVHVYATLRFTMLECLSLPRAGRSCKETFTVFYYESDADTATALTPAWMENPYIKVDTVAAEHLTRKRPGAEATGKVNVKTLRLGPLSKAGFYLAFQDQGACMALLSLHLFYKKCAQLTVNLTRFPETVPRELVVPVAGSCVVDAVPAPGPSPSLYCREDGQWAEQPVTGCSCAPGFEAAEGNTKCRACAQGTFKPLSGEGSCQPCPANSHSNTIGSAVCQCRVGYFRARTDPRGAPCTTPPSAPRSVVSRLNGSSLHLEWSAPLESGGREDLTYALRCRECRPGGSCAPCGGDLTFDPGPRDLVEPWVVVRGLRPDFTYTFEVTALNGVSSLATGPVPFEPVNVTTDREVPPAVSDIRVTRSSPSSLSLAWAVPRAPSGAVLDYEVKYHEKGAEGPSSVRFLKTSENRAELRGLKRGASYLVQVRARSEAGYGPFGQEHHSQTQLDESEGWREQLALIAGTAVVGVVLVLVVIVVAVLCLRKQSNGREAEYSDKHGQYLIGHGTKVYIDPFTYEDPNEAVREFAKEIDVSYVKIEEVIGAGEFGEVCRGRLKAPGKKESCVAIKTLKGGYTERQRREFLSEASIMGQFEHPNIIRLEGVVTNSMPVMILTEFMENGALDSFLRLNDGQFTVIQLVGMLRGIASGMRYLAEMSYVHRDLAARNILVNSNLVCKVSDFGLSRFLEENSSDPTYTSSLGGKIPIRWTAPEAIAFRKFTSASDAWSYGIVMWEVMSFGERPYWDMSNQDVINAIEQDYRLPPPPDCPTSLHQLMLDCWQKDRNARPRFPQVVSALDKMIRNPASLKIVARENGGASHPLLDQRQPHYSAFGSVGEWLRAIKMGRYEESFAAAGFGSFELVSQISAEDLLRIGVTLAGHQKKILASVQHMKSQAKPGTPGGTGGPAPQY

Ephrin type-A receptor 2 = Ephrin type-A receptor 2 (Homo sapiens, UniProt P29317); experiment: Inhibition of recombinant human N-terminal His6-tagged EphA2 (N598 to R890 residues) expressed in baculovirus using poly-EY as substrate after 180 mins by luciferase coupled chemiluminescence assay
Ephrin type-A receptor 2, sequence (P29317 whole entry, the tested form may be a part): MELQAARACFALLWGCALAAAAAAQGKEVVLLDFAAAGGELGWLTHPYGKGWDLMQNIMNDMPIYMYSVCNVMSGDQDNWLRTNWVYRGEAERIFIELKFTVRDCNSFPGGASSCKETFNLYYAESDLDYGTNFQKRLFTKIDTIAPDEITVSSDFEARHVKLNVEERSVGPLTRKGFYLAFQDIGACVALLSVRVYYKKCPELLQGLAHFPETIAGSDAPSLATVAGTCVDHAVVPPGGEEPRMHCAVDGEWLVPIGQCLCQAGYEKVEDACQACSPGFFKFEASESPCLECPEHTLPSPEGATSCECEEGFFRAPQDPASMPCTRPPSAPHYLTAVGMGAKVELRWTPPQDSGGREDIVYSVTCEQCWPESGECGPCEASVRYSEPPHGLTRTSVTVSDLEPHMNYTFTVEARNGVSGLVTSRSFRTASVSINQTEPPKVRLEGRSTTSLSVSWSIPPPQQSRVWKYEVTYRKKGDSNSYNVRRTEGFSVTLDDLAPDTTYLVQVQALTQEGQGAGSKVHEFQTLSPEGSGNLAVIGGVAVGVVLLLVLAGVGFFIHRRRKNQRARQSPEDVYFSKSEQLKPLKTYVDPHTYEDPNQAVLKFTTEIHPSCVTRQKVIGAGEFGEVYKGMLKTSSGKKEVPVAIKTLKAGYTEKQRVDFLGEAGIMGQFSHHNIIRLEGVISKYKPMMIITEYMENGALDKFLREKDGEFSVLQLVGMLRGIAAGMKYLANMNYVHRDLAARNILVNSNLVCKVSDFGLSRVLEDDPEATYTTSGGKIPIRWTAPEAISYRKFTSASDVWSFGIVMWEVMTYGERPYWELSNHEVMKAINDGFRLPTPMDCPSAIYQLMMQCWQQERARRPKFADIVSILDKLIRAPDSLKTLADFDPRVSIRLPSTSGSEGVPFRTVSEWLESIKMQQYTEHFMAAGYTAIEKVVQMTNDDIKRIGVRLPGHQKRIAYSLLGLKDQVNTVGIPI

[3] = target: Vascular endothelial growth factor receptor 1 (Homo sapiens, UniProt P17948); experiment: Inhibition of recombinant human N-terminal GST-tagged factor 10a cleavage site-fused Flt1 (K784 to I1338 residues) expressed in baculovirus infected insect Sf9 cells using poly-EY as substrate after 120 mins in presence of gamma33P-ATP by liquid scintillation spectrometry
Vascular endothelial growth factor receptor 1, sequence (P17948 whole entry, the tested form may be a part): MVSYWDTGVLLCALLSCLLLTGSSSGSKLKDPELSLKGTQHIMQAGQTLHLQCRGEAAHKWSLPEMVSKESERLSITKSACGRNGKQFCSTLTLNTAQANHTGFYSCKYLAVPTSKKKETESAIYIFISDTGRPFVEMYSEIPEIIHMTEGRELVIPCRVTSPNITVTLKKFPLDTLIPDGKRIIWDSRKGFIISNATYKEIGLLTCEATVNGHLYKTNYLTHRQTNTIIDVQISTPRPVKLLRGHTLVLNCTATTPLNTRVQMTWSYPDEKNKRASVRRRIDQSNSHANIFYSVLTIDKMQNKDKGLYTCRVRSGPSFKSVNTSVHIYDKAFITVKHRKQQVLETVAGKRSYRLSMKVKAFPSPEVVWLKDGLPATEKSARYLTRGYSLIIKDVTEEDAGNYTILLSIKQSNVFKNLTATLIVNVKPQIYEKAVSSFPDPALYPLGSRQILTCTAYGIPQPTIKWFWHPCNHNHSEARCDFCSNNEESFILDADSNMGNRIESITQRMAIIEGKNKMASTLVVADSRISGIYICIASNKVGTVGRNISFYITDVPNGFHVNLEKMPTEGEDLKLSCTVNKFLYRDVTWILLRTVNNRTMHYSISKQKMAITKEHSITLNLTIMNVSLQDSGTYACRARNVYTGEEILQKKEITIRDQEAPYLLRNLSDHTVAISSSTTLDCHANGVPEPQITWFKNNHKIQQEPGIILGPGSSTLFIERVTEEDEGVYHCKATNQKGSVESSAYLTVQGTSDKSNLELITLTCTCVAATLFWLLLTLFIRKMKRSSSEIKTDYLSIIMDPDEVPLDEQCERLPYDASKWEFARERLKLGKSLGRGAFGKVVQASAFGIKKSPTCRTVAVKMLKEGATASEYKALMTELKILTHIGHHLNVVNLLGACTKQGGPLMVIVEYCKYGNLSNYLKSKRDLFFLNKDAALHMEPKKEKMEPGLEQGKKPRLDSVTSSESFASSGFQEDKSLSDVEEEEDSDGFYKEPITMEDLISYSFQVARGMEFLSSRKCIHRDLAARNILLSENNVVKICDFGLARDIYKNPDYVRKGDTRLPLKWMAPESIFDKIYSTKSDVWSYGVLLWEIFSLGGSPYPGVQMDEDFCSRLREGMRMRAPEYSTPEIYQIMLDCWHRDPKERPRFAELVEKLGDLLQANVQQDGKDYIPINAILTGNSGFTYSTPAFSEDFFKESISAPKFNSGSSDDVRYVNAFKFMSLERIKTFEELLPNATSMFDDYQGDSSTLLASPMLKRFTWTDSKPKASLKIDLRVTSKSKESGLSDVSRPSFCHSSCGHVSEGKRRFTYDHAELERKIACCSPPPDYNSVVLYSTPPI

Receptor tyrosine-protein kinase erbB-2, sequence (P04626 whole entry, the tested form may be a part): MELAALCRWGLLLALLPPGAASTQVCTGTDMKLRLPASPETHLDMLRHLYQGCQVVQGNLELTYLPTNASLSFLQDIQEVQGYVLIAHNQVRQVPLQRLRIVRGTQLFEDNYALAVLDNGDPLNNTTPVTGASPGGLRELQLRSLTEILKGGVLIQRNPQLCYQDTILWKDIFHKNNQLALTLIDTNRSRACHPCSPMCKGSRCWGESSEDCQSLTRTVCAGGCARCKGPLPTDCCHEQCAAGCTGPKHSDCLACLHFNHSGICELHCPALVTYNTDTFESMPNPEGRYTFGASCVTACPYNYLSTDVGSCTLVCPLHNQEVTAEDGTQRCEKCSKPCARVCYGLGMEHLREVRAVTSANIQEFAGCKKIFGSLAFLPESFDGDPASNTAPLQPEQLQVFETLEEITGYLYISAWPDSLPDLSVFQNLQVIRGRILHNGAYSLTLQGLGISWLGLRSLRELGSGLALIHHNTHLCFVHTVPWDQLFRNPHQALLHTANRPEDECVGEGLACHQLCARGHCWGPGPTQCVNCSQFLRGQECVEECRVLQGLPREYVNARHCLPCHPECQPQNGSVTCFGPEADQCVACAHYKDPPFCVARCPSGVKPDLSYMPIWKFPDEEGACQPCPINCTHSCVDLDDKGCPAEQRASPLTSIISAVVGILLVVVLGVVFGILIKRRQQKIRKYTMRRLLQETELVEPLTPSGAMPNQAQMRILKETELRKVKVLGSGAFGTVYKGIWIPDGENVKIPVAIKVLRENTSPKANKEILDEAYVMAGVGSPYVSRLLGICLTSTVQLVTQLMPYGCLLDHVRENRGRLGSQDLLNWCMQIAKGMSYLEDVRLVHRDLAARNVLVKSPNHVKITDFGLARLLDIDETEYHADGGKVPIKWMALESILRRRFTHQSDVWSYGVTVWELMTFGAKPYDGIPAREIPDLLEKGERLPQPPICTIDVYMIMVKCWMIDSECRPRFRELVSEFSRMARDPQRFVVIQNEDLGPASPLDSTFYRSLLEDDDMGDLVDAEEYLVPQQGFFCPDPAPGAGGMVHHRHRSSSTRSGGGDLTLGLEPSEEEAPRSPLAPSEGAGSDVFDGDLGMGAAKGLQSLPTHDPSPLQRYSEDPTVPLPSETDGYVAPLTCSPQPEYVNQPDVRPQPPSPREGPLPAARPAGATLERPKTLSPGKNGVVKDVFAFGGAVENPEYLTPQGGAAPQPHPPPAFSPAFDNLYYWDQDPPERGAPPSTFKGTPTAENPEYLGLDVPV

Compound: COc1cc2c(Nc3ccc(Cl)c(Cl)c3)ncnc2cc1OC[C@@H]1CN2CCC[C@@H]2CO1
- IC50 [1]: < 50 nM
- IC50 [2]: < 50 nM
- IC50 (Ephrin type-B receptor 4): < 50 nM
- IC50 (Ephrin type-A receptor 2): < 50 nM
- IC50 [3]: 50 to 1000 nM

Compound: COc1cc2c(Nc3cc(Cl)c(Br)cc3F)ncnc2cc1OC[C@H]1CN2CCOC[C@H]2CO1
- IC50 [1]: 50 to 1000 nM
- IC50 [2]: 50 to 1000 nM
- IC50 (Ephrin type-B receptor 4): 50 to 1000 nM
- IC50 (Ephrin type-A receptor 2): 50 to 1000 nM
- IC50 [3]: 50 to 1000 nM

Compound: COc1cc2c(Nc3ccc(Br)c(Cl)c3Cl)ncnc2cc1OC[C@@H]1CN2CCC[C@H]2CO1
- IC50 [1]: 50 to 1000 nM
- IC50 [2]: < 50 nM
- IC50 (Ephrin type-B receptor 4): < 50 nM
- IC50 (Ephrin type-A receptor 2): < 50 nM
- IC50 [3]: 50 to 1000 nM

Compound: COc1cc2c(Nc3ccc(Br)c(Cl)c3F)ncnc2cc1OC[C@@H]1CN2CCC[C@H]2C(=O)N1
- IC50 [1]: 1000 to 20000 nM
- IC50 [2]: < 50 nM
- IC50 (Ephrin type-B receptor 4): < 50 nM
- IC50 (Ephrin type-A receptor 2): 50 to 1000 nM
- IC50 [3]: 50 to 1000 nM

Compound: COc1cc2c(Nc3ccc(Br)c(Cl)c3F)ncnc2cc1OC[C@@H]1CN2CCC[C@H]2CO1
- IC50 [1]: 50 to 1000 nM
- IC50 [2]: < 50 nM
- IC50 (Ephrin type-B receptor 4): < 50 nM
- IC50 (Ephrin type-A receptor 2): < 50 nM
- IC50 [3]: < 50 nM

Compound: COc1cc2c(Nc3ccc(Cl)c(Cl)c3F)ncnc2cc1OC[C@@H]1CN2CCC[C@H]2CO1
- IC50 [1]: 50 to 1000 nM
- IC50 [2]: < 50 nM
- IC50 (Ephrin type-B receptor 4): < 50 nM
- IC50 (Ephrin type-A receptor 2): < 50 nM
- IC50 [3]: 50 to 1000 nM

Compound: COc1cc2c(Nc3cc(Cl)c(Cl)cc3F)ncnc2cc1OC[C@@H]1CN2CCOC[C@H]2CO1
- IC50 [1]: 50 to 1000 nM
- IC50 [2]: 50 to 1000 nM
- IC50 (Ephrin type-B receptor 4): < 50 nM
- IC50 (Ephrin type-A receptor 2): 50 to 1000 nM
- IC50 [3]: 50 to 1000 nM

Compound: COc1cc2c(Nc3ccc(Br)c(Cl)c3Cl)ncnc2cc1OC[C@@H]1CN2CCOC[C@H]2CO1
- IC50 [1]: 1000 to 20000 nM
- IC50 [2]: 50 to 1000 nM
- IC50 (Ephrin type-B receptor 4): < 50 nM
- IC50 (Ephrin type-A receptor 2): 50 to 1000 nM
- IC50 [3]: 50 to 1000 nM

Compound: COc1cc2c(Nc3ccc(Cl)c(Cl)c3)ncnc2cc1OC[C@H]1CN2CCC[C@H]2CO1
- IC50 [1]: < 50 nM
- IC50 [2]: < 50 nM
- IC50 (Ephrin type-B receptor 4): < 50 nM
- IC50 (Ephrin type-A receptor 2): < 50 nM
- IC50 [3]: 50 to 1000 nM

Compound: COc1cc2c(Nc3ccc(Cl)c(Cl)c3)ncnc2cc1OC[C@H]1CN2CCC[C@@H]2CO1
- IC50 [1]: 50 to 1000 nM
- IC50 [2]: < 50 nM
- IC50 (Ephrin type-B receptor 4): < 50 nM
- IC50 (Ephrin type-A receptor 2): 50 to 1000 nM
- IC50 [3]: 50 to 1000 nM

Compound: COc1cc2c(Nc3ccc(Cl)c(Cl)c3F)ncnc2cc1OC[C@H]1CN2CCOC[C@H]2CO1
- IC50 [1]: 50 to 1000 nM
- IC50 [2]: < 50 nM
- IC50 (Ephrin type-B receptor 4): < 50 nM
- IC50 (Ephrin type-A receptor 2): 50 to 1000 nM
- IC50 [3]: 50 to 1000 nM

Compound: COc1cc2c(Nc3ccc(Cl)c(Cl)c3F)ncnc2cc1OC[C@@H]1CN2CCOC[C@H]2CO1
- IC50 [1]: < 50 nM
- IC50 [2]: < 50 nM
- IC50 (Ephrin type-B receptor 4): < 50 nM
- IC50 (Ephrin type-A receptor 2): < 50 nM
- IC50 [3]: < 50 nM

Compound: COc1cc2c(Nc3cc(Cl)c(Br)cc3F)ncnc2cc1OC[C@@H]1CN2CCC[C@H]2CO1
- IC50 [1]: 50 to 1000 nM
- IC50 [2]: < 50 nM
- IC50 (Ephrin type-B receptor 4): < 50 nM
- IC50 (Ephrin type-A receptor 2): < 50 nM
- IC50 [3]: 50 to 1000 nM

Compound: COc1cc2c(Nc3ccc(Cl)c(Cl)c3F)ncnc2cc1OC[C@@H]1CN2CCC[C@H]2C(=O)N1C
- IC50 [1]: 1000 to 20000 nM
- IC50 [2]: 50 to 1000 nM
- IC50 (Ephrin type-B receptor 4): < 50 nM
- IC50 (Ephrin type-A receptor 2): 50 to 1000 nM
- IC50 [3]: 50 to 1000 nM

Compound: COc1cc2c(Nc3ccc(Br)c(Cl)c3F)ncnc2cc1OC[C@@H]1CN2CCOC[C@H]2CO1
- IC50 [1]: < 50 nM
- IC50 [2]: < 50 nM
- IC50 (Ephrin type-B receptor 4): < 50 nM
- IC50 (Ephrin type-A receptor 2): < 50 nM
- IC50 [3]: < 50 nM

Compound: COc1cc2c(Nc3ccc(Cl)c(Cl)c3)ncnc2cc1OC[C@@H]1CN2CCC[C@H]2CO1
- IC50 [1]: 50 to 1000 nM
- IC50 [2]: < 50 nM
- IC50 (Ephrin type-B receptor 4): < 50 nM
- IC50 (Ephrin type-A receptor 2): < 50 nM
- IC50 [3]: 50 to 1000 nM

Compound: COc1cc2c(Nc3ccc(F)c(Cl)c3F)ncnc2cc1OC[C@@H]1CN2CCOC[C@H]2CO1
- IC50 [1]: 50 to 1000 nM
- IC50 [2]: 50 to 1000 nM
- IC50 (Ephrin type-B receptor 4): < 50 nM
- IC50 (Ephrin type-A receptor 2): 50 to 1000 nM
- IC50 [3]: 50 to 1000 nM

Compound: COc1cc2c(Nc3cc(Cl)c(Cl)cc3F)ncnc2cc1OC[C@H]1CN2CCOC[C@H]2CO1
- IC50 [1]: 50 to 1000 nM
- IC50 [2]: 50 to 1000 nM
- IC50 (Ephrin type-B receptor 4): 50 to 1000 nM
- IC50 (Ephrin type-A receptor 2): 50 to 1000 nM
- IC50 [3]: 50 to 1000 nM

Compound: COc1cc2c(Nc3ccc(F)c(Cl)c3F)ncnc2cc1OC[C@H]1CN2CCOC[C@H]2CO1
- IC50 [1]: 50 to 1000 nM
- IC50 [2]: 50 to 1000 nM
- IC50 (Ephrin type-B receptor 4): 50 to 1000 nM
- IC50 (Ephrin type-A receptor 2): 50 to 1000 nM
- IC50 [3]: 50 to 1000 nM

Compound: COc1cc2c(Nc3cc(Cl)c(Br)cc3F)ncnc2cc1OC[C@@H]1CN2CCOC[C@H]2CO1
- IC50 [1]: 50 to 1000 nM
- IC50 [2]: 50 to 1000 nM
- IC50 (Ephrin type-B receptor 4): < 50 nM
- IC50 (Ephrin type-A receptor 2): 50 to 1000 nM
- IC50 [3]: 50 to 1000 nM

Compound: COc1cc2c(Nc3ccc(F)c(Cl)c3F)ncnc2cc1OC[C@@H]1CN2CCC[C@H]2CO1
- IC50 [1]: 50 to 1000 nM
- IC50 [2]: 50 to 1000 nM
- IC50 (Ephrin type-B receptor 4): < 50 nM
- IC50 (Ephrin type-A receptor 2): < 50 nM
- IC50 [3]: 50 to 1000 nM

Compound: COc1cc2c(Nc3cc(Cl)c(Cl)cc3F)ncnc2cc1OC[C@@H]1CN2CCC[C@H]2CO1
- IC50 [1]: 50 to 1000 nM
- IC50 [2]: < 50 nM
- IC50 (Ephrin type-B receptor 4): < 50 nM
- IC50 (Ephrin type-A receptor 2): < 50 nM
- IC50 [3]: 50 to 1000 nM

Compound: COc1cc2c(Nc3ccc(Cl)c(Cl)c3)ncnc2cc1OCC1CN2CCOCC2CO1 (stereo not given)
- IC50 [1]: < 50 nM
- IC50 [2]: < 50 nM
- IC50 (Ephrin type-B receptor 4): < 50 nM
- IC50 (Ephrin type-A receptor 2): 50 to 1000 nM
- IC50 [3]: 50 to 1000 nM

Compound: COc1cc2c(Nc3ccc(Cl)c(Cl)c3)ncnc2cc1OC1C[C@@H]2CN(C)C[C@@H]2C1 (stereo not given in full)
- IC50 [1]: 50 to 1000 nM
- IC50 [2]: 50 to 1000 nM
- IC50 (Ephrin type-B receptor 4): 50 to 1000 nM
- IC50 (Ephrin type-A receptor 2): 50 to 1000 nM
- IC50 [3]: 1000 to 20000 nM

Compound: COc1cc2c(Nc3ccc(Br)c(Cl)c3F)ncnc2cc1OC[C@H]1CN2CCOC[C@H]2CO1
- IC50 [1]: 50 to 1000 nM
- IC50 [2]: < 50 nM
- IC50 (Ephrin type-B receptor 4): 50 to 1000 nM
- IC50 (Ephrin type-A receptor 2): 50 to 1000 nM
- IC50 [3]: 50 to 1000 nM
